Key:
[1] = In vivo CT of filler nodule volume, density and 3D shape after test solutions 0-8 (Example 3)
Method: One hour after filler injections (T=1 h), 1.5 mL of selected solutions (Table 5, solutions 0-8, test items, solution 0 is normal saline and not hyperosmotic) were injected each into 9 dermal filler nodules in the right flank (ventral area).
A total of 7 CT-scans were performed at 1 h 15, 2 h, 4 h, 1 day (24 h), 3, 7 and 14 days after injection of the dermal filler. The clinical state of each animal is assessed once a week by body weight measurement and clinical observations.
The 10 SC injections of dermal filler on Day 0 were performed in the ventral area, (five nodules on each flank of the ventral area) for each pig. For each SC nodule, a theoretical volume of 500 μl was administered. One hour (±5 min) after injection of dermal filler, SC injection of the different solutions (prepared the day before) were performed into nine (9) nodules of dermal. For each SC nodule, a theoretical volume of 1.5 mL of test solution was administered.
The X-ray computed tomography acquisitions were performed with the Computed Tomography Scanner BrightSpeed 16 (General Electric). In order to measure the volume and the mean density and to visualize the 3D shape of the dermal filler (Radiesse® filler with or without test solution) injected, in vivo CT-scans were performed on Day 0: 1 h 15 (±10 min), 2 h (±15 min) and 4 h (±20 min), on Day 1 (24 h+1 h), Day 3, Day 7 and Day 14.
During CT acquisition on Day 0, the pigs received an IM injection of anesthesia. The animals were maintained under anesthesia until the CT acquisition at T=2 h (2 h after dermal filler injection session). Between these CT acquisitions, the animals were under surveillance in the recovery room on a heating mat with fluidotherapy. At the end of the CT acquisition at T=2 h, the pigs received a tattoo around each injected site. During the CT acquisitions at T=4 h and on Days 1, 3, 7 and 14, pigs received an IM injection of anesthesia. For the CT-scans, animals were positioned in dorsal recumbency and acquisitions were centered on the injection sites. The parameters of the CT-scan are described in Table 5.
The CT acquisition was analyzed with the software Avizo version 9.2.0. The objective of this analysis was to assess the degradation over time of the dermal filler injected by SC route after injection of different test solutions.
An image segmentation processing was performed on each CT acquisition. First, a manual pre-segmentation was performed around each nodule in order to roughly isolate the voxels corresponding to dermal filler product, which defined a Region of Interest (ROI). Second, an automatic segmentation was applied on the previously defined ROI using a global grey level thresholding procedure.
On day 0, a farm pig received ten (10) SC injections of Radiesse® dermal filler 0.5 mL (ventral area) (10 nodules in total). One hour after filler injections (T=1 h), 1.5 mL of one of eight test hyperosmotic solutions (1-8 solutions, Table 5) was injected at an injection site. One injection site was untreated and one injection site was treated with normal saline (0.9% wt/v NaCl).

[2] = Semi-quantitative histopathologic analysis of injection sites (Example 1); conditions: for AM Degradation / Cell or Tissue Degeneration / Encapsulation / Fatty Infiltrate / Fibrin / Fibroblasts / Fibrosis / Giant Cells / Hemorrhage / Lymphocytes / Macrophages / Necrosis / Neovascularization / Plasma Cells / Polymorphonuclear Cells / Tissue Ingrowth / Tissue Integration: mean score, day 7
Method: After complete fixation in 10% NBF and micro-CT analysis, the 30 test sites and the TO site, were cut into five blocks. The blocks were decalcified for 48 hours with formic acid and then dehydrated in alcohol solutions of increasing concentration, cleared in xylene and embedded in paraffin. […] Finally, the blocks were placed in HCl for 15 min and the blocks could then be cut to obtain slides for analysis.
The section was stained with safranin-hematoxylin-cosin (SHE). The same procedure was used for the preparation of the TO site used for structural characterization and evaluation of the degradation.
Qualitative and semi-quantitative histopathologic evaluation of the local tissue effects and the inflammatory response at injection sites was conducted according using standard methods.
Evaluation of local tissue effects was based on the qualitative and semi-quantitative histopathologic evaluation: mean score comparison of the semi-quantitative parameters and comparison of the qualitative histopathologic findings.

[3] = Electron microscopy (SEM) of filler particles isolated from test sites (Example 1); conditions: for particle degradation (change in particle size or surfaces) by EM / 25-45 μm / <25 μm / >45 μm / D-ratio: day 7; for Mean diameter: filler particles by EM, seven days after filler injection; for 25-45 μm / <25 μm / >45 μm: particle size distribution by EM; for D-ratio: shape index, 1=round, EM
Method: EM analysis is used, for example, to analyze morphology and the particle size distribution of Calcium Hydroxyapatite (CaHA) particles in tissue integrated particles. […] The biopsy material underwent an enzymatic digestion with protease (Trypsin without EDTA, for […], at 37° C.) after fixation in 10% neutral buffered formalin (NBF). Digested sample was centrifuged, and microscopy samples of the supernatant as well as the pellet were prepared and subjected to EM analysis at room temperature.
Samples were analyzed using a Scanning Electron Microscope (SEM) (Phenom Pure G3, ThermoFisher, with Phenom Pro Suite application system, ImageJ (version 1.51j8) software and OriginPro 2018G (64-bit) SR1 b9.5.1.195 software for analysis and data processing). To evaluate the changes in CaHA microparticle characteristics the samples were analyzed with the Scanning Electron Microscopy (SEM) and evaluated for morphology as well as for the size and shape of the material. Statistical analysis of particle size distribution (PSD) would show changes of the material.
SEM images were taken from three fractions per sample to determine the particle- and volume-weighted size distributions. Up to 400 SEM images per fraction were taken at a magnification of ×500 and further processed by automated image analyzing software ImageJ (version 1.51j8). Image processing took place for every fraction image to determine selected parameters. e.g., Feret diameter and aspect ratio (D-ratio).

[4] = Quantitative histomorphometric analysis of injection sites (Example 1); type: in vivo, Swine (Sus scrofa domesticus); conditions: injected area, day 7, mean
Method: Histomorphometric analysis was conducted on the 31 sections. Each section was analyzed with a color image analyzing system (Tribvn, France, CALOPIX version 3.2.0) to perform a semi-automatic analysis.
A Test Area was defined in a limited area where the print of the granules of the associated material was clear. This area was defined to evaluate the average area and diameter of each microsphere. A Test Area had to contain between 100 and 300 clearly defined granules to be considered as representative. FIG. 2 illustrates a Test Area in a section.
The injected area was the entire area where material was detected on the slide. The Test Area was part of the injected area.
Quantitative measurements were performed either in the Test Area or in the entire injected area. […]
Implant Area (μm^2) (Test Area): the surface area of granules measured in the Test Area (including any Lacunae Area).
Implant Area (mm^2) (Injected Area): the surface of granules was measured in the entire injected area (including any Lacunae Area). […]
Lacunae Area (mm^2) (Injected Area): the surface of the “Lacunae” Area was measured as defined by the optically empty spaces corresponding to merged granules (no distinct limits between several granules).

[5] = Method: A total of 10 CT-scans were performed at 30 min, 1 h 15 min, 1 h 30 min, 1 h 45 min, 2 h, 3 h, 4 h, 8 h, 1 day (24 h) and 7 days after injections of the dermal filler.
The X-ray computed tomography (CT) acquisitions were performed with the Computed Tomography Scanner BrightSpeed 16 (General Electric). In order to measure the volume, the mean density and visualize the 3D (Three-dimensional) shape of the dermal fillers SC injected, in vivo CT-scans were performed 1 h 15 (±5 min), 1 h 30 (±10 min), 1 h 45 (±10 min), 2 h (±10 min), 3 h (±15 min), 4 h (±15 min), 8 h (±30 min), 24 h (Day 1+1 h) and 7 days after the test item injections.
For each CT-scan, the animal was positioned in dorsal recumbency (ventral images) and acquisitions were centered on the injection sites. The parameters of the CT-scan are described in Table 4.
The CT acquisitions were analyzed with Avizo version 9.2.0 software. […] To achieve this goal, the evolution of the following parameters was observed over time: • the volume of each nodule, • the mean density of each nodule, and • the 3D shape of each nodule by visualization on the 3D model of each nodule at each time point. Segmentation
An image segmentation was performed on each CT acquisition using standard reconstruction. First, a manual pre-segmentation was performed around each nodule in order to roughly isolate the voxels corresponding to dermal filler. An interpolation procedure was performed to obtain a contour for each slice and define a Region of Interest (ROI). Second, an automatic segmentation was applied on the ROI previously defined using a global grey level thresholding procedure. The relevant threshold allowing the isolation of the dermal filler products was defined on the basis of the Hounsfield Unit (HU) histogram, following the Otsu method to accurately define the ROI. […] Then, a 3D model of these selected voxels was obtained allowing calculation of the total volume (in mm^3) of each nodule of non-degraded dermal filler.
The volume (in mm^3) of the ROI corresponding to each nodule of dermal filler and the mean density (in HU) of each nodule were calculated at each time point.
In order to assess the evolution over time of the elimination of SC-injected dermal filler, the mean volume±standard deviation (SD) and the average of mean density±SD were calculated for each dermal filler injection of the right and left flank separately at each different time points. The evolution of the mean volumes, the mean volume variations and the average of the mean densities of each dermal filler were calculated.

[6] = day 7 after injection; 1.5 mL into 0.5 mL filler site; vs untreated filler
[7] = Example 3, mean, listed as Normal Saline (sol 0)

| Structure (SMILES) | AM Degradation [2] | Cell or Tissue Degeneration [2] | Encapsulation [2] | Fatty Infiltrate [2] | Fibrin [2] | Fibroblasts [2] | Fibrosis [2] | Giant Cells [2] | Hemorrhage [2] | Lymphocytes [2] | Macrophages [2] | Necrosis [2] | Neovascularization [2] | Plasma Cells [2] | Polymorphonuclear Cells [2] | Tissue Ingrowth [2] | Tissue Integration [2] | particle degradation (change in particle size or surfaces) by EM [3] | Mean diameter [3] [μm] | 25-45 μm [3] [wt %] | further results |
| --- | --- | --- | --- | --- | --- | --- | --- | --- | --- | --- | --- | --- | --- | --- | --- | --- | --- | --- | --- | --- | --- |
| [Cl-].[Na+] [sol 0, Sodium chloride] | 1.0 | 0.0 | 0.0 | 0.0 | 1.7 | 2.0 | 0.0 | 2.0 | 1.1 | 1.3 | 2.4 | 0.1 | 1.0 | 0.0 | 1.0 | 2.5 | 2.5 | no indication of particle degradation | 28.8 | 93.2 | Change in Volume as percent of Injected Volume, Day 14/15 ([1]; Example 3 (Day 14), mean, listed as Normal Saline (sol 0)): 187.72%; Change in Volume as percent of Injected Volume, Day 0 + 1 h 15 ([1]; Example 3, mean, 1.5 mL solution into 500 μl nodule, listed as Normal Saline (sol 0)): 155.02%; Change in Volume as percent of Injected Volume, Day 0 + 2 h [1, 7]: 159.42%; Change in Volume as percent of Injected Volume, Day 0 + 4 h [1, 7]: 182.97%; Change in Volume as percent of Injected Volume, Day 1 [1, 7]: 209.66%; Change in Volume as percent of Injected Volume, Day 3 [1, 7]: 215.48%; Change in Volume as percent of Injected Volume, Day 7 [1, 7]: 212.85%; effect on volume at the filler injection site ([1]; after 7 and 14 days, vs untreated, listed as normal saline): does not produce significant decreased volume; <25 μm [3]: 1.4 wt %; >45 μm [3]: 5.4 wt %; D-ratio [3]: 0.8; Implant area [4]: 19.2 mm^2 |
| O=S([O-])([O-])=S.[Na+].[Na+] [STS, sodium thiosulfate] | 1.8 | 0.0 | 0.0 | 0.0 | 2.4 | 2.0 | 0.0 | 1.4 | 2.1 | 1.1 | 2.0 | 1.2 | 1.0 | 0.0 | 1.1 | 2.5 | 2.5 | no indication of particle degradation | 29.2 | 93.1 | appearance of filler in histology slices ([2]; SHE stain, vs Saline treatment or untreated filler): more dispersed (diluted) appearance of filler; fibrin content, hemorrhage and necrosis by histopathology ([2]; seven days): increased fibrin content, hemorrhage and necrosis; inflammation by histopathology ([2]; seven days): decreased inflammation (macrophages, giant cells); amount of filler by histopathology ([2]; seven days, vs Saline treatment and untreated injections): decreased amount of filler; <25 μm [3]: 1.7 wt %; >45 μm [3]: 5.2 wt %; D-ratio [3]: 0.8; Radiesse+STS high volume (HU 250-infinity) vs untreated filler by CT ([5]; 90 minutes after injection): very modest temporary increase; Radiesse+STS high density vs untreated filler by CT ([5]; day 7): strong trend for a decrease; filler volume×density/1000 (filler content) in Radiesse+STS high fraction ([5]; day 7): significant decrease of filler; highest HU values of voxel frequency trace ([5]; day 7, untreated filler 450-570 HU): 250-400 HU; number of voxels at 750 HU ([5]; day 7, untreated filler c.a. 70): ~40 voxels; Radiesse-STS (low) volume (0 to 250 HU) by CT ([5]; diluted/dispersed fraction over time): increases with the time between 120 and 240 minutes; effect on dermal filler volume as measured by micro-CT [6]: ≤ 10% |

— patent US12239661B2, “Methods and compositions for treating undesired implanted tissue filler” (priority 2019, dated 2025)
